# Results as given in PubChem BioAssay (NCI).
# Where “and” joins values, the source holds several entries; their conditions need not be identical. Equal entries are not always repeated.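 Cultured in 96-well plates, cells were exposed to test compound for 48 hours across five concentrations. The concentration for 50% growth inhibition is given as GI50. TGI: total growth inhibition.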
# Tested on: MDA-MB-468 breast
# Assay: NCI-60 cell line screen, 48 h
Structure (SMILES),GI50,TGI
CCCCCCC/C(=N\N=C(N)N)c1ccc(O)cc1,1.3 µM,2.6 µM
COc1cnc2c(c1)C(=O)c1c-2n(CCCNCC2CC2)c(=O)c2cc(F)ccc12,0.316 µM,0.904 µM
O=C(N/N=C\c1cc(Cl)ccc1O)c1ccncc1,1.83 µM,9.82 µM
COc1ccc2oc(=O)cc(C3c4ccc([nH]4)C(c4cc(=O)oc5ccc(OC)cc45)c4ccc([nH]4)C(c4cc(=O)oc5ccc(OC)cc45)c4ccc([nH]4)C(c4cc(=O)oc5ccc(OC)cc45)c4ccc3[nH]4)c2c1 (stereo unspecified),0.401 µM,1.91 µM
CC1=C2[C@H]3OC(=O)[C@@H](C)[C@@H]3CC[C@@]2(C)C=CC1=O,> 100 µM,> 100 µM
c1cc2ccc3cc2cc1CNCCN1CCNCc2ccc4ccc(cc4c2)CNCCN(CCNC3)CCNCc2ccc3ccc(cc3c2)CNCC1,2.01 µM,4 µM
COc1ccc(C(=O)C2C(C#N)C(C#N)C3C=Cc4ccccc4N32)cc1 (stereo unspecified),2.31 µM,> 100 µM
C=CCCCC(=O)CCC(=O)OCC1O[C@@H](O[C@@H]2C(O)[C@@H](OC(C)=O)C(C)O[C@H]2O[C@H](CC=C)CCCCC)C(O)[C@@H](OC(=O)/C(C)=C/C)[C@@H]1OC(=O)/C=C/c1ccccc1 (stereo partly specified),0.0321 µM,1.22 µM
Cc1ccc(S(=O)(=O)Oc2ccccc2-c2ccccc2)cc1,0.866 µM,4.22 µM
O=c1c2c3c(sc2n2c(CCl)nnc2n1Cc1ccccc1)CCCC3,1.77 µM,3.72 µM
COc1ccc2[nH]c(C(=O)N3CCN(C(=O)OCc4ccc5c(Br)cc(Br)c(O)c5n4)CC3)cc2c1,0.209 µM,0.506 µM
Cc1ccc2nc3ccccc3c(NCc3ccccc3)c2c1,1.52 µM,5.54 µM
NCCOc1ncccc1/C=C1\C2C=CC=CC2C2C=CC(F)=CC12 (stereo unspecified),0.483 µM,2.01 µM
Cn1cc(-c2ccc(-c3cn(C)c4ncccc34)[nH]2)c2cccnc21,1.79 µM,5.22 µM
CO/N=C/C=C\C(=O)N/C=C/C[C@H]1/C=C/[C@H](O)/C=C\C=C\c2cccc(O)c2C(=O)O1,0.286 µM and 0.187 µM,29.9 µM and 17.5 µM
O=C(O)c1cc2cc(OCc3ccccc3)ccc2[nH]1,> 100 µM,> 100 µM
CC(=O)Nc1nc(C)c(-c2csc(Nc3ccccc3)n2)s1,1.74 µM,9.01 µM
COC(=O)c1ccc([C@H]2c3[nH]c4ccccc4c3C[C@H](C(=O)OC)N2C(=O)CCl)cc1,0.472 µM,1.9 µM
Nc1c(C(=O)Nc2ccccc2)sc2nc3c(cc12)C(O)CCC3 (stereo unspecified),0.29 µM,> 100 µM
N#CCCN1C/C(=C/c2ccccc2)C(=O)/C(=C/c2ccccc2)C1,1.68 µM,3.78 µM
COc1ccc(C(=O)/C=C/c2ccc(OCc3ccc(Cl)cc3)cc2)cc1OC,40.6 µM,271 µM
COc1cc(C(=O)/C=C/c2cc(-c3cc(OC)c(OC)c(OC)c3)n[nH]2)cc(OC)c1OC,1.15 µM,2.48 µM

Structure (SMILES),GI50,TGI
O=C(CCl)Nc1ccc2c(Nc3cc(O)ccc3Cl)ncnc2c1,2.29 µM,7.68 µM
N#Cc1c(-c2ccc(Cl)cc2)cc(-c2cc(O)ccc2O)nc1N,0.769 µM,3.72 µM
O=C1N=C(c2c(-c3[nH]c(=O)c4ccc(Br)cc4c3O)c(O)c3ccccc3c2O)C(=O)c2cc(Br)ccc21,0.412 µM,1.49 µM
Cc1ccncc1N1CCN(c2ccnc(Cl)c2)C1=O,> 100 µM,> 100 µM
COc1ccc(C(=O)NCCNc2nccc(-c3c(-c4ccc(F)cc4)nc4sccn34)n2)cc1,4.74 µM,41 µM
O=C(CC1(O)C(=O)N(Cc2ccccc2)c2ccc(Br)cc21)c1ccc(C(=O)NCC2CCC3(CC2)OOC2(CCCCC2)OO3)cc1 (stereo unspecified),2.01 µM,6.72 µM
O=C(Nc1ccc(-n2ccc3c(NC(=O)c4ccccc4)nccc32)cc1)c1cccc(C(F)(F)F)c1,1.2 µM,7.3 µM
COc1ccc(NC(=O)c2sc3nc(C)c(C(=O)/C=C/c4ccccc4)cc3c2N)cc1,0.92 µM,2.03 µM
CCCCCCCCCCCCCCNc1nc(C(=O)OCC)ncc1-c1ccc(C(F)(F)F)cc1,> 100 µM,> 100 µM
NC(=O)[C@@H](CCC(F)(F)F)N(Cc1ccc(-c2ncon2)cc1F)S(=O)(=O)c1ccc(Cl)cc1,7.26 µM,> 100 µM
Clc1ccc(CN2COc3c(ccc4cccnc34)C2)cc1Cl,0.543 µM,2.16 µM
CCCCCCCCNC(=O)c1ccc(Cn2c(CCCC)nc3c(N)nc4ccccc4c32)cc1,1.38 µM,3.06 µM
CCCCCC/C=C\CCCCCCCCCc1cc(O)cc(OC)c1O,0.296 µM,0.828 µM
CCC(=O)Oc1cc(/C=C/C(=O)O[C@H]2C[C@H]3CN4CCc5c([nH]c6cc(OC)ccc56)[C@@H]4C[C@@H]3[C@@H](C(=O)OC)[C@@H]2OC)ccc1OC,4.76 µM,33.3 µM
O=c1c2sc3ccccc3c2nnn1-c1ccc(F)c(Cl)c1,12.8 µM,99.5 µM
CS(C)(=O)=O,> 100000 µM,> 100000 µM
CCCOc1cc2c(cc1O)CC[C@@H]1[C@@H]2CC[C@]2(C)[C@@H](O)CC[C@@H]12,2.8 µM,16.7 µM
Cn1ccnc1C(=O)/C=C/c1ccc(C(=O)Nc2ccccc2F)cc1,2.49 µM,8.3 µM
COc1ccc2nc(NC(=O)COc3cc(/C=C\c4cc(OC)c(OC)c(OC)c4)ccc3OC)sc2c1,2.29 µM,8.37 µM
O=c1cc(N2CCOCC2)oc2c(-c3ccc4c(c3)OCCO4)csc12,0.629 µM,3.75 µM
COC(=O)N1c2ccc3c(nc(Cc4ccccc4)n3[C@H]3CCC[C@H](C(=O)O)C3)c2CC[C@@H]1C,3.82 µM,> 100 µM
